In the NIST ThermoML archive (doi:10.1021/je7003512) one finds mass density and refractive index data, which are given here for ten compounds.

± gives the expanded uncertainty stated by the source.

The conditions of data set [1]: 298.15 K; 101.33 kPa; Liquid.
A short description of data set [2]: refractive index (Na D-line) (dimensionless). Conditions: 298.15 K; 101.33 kPa; Liquid; Standard Abbe refractometry.
Data set [3] can be described thus: refractive index (Na D-line) (dimensionless); xn = mol fraction of the nth substance listed. The conditions noted are these: 298.15 K, 101 kPa, Liquid, Standard Abbe refractometry.

For orientation: mass density means mass per unit of volume. A word on the refractive index: it is the speed of light in vacuum divided by its phase velocity in the sample.

As for `CC(C)CC(C)(C)C` [2,2,4-trimethylpentane], the mass density in data set [1] is recorded as 688.18 ± 1.3 kg/m3. Also, the refractive index in data set [2] was found to be 1.39267 ± 0.00078.

Take `CC(C)CC(C)(C)C` [2,2,4-trimethylpentane] + C=COCCC: in data set [3] (x2 = 0), the refractive index is listed as 1.39267 ± 0.00078.

With `CC(C)CC(C)(C)C` [2,2,4-trimethylpentane] + CCO, the refractive index in data set [3] (x2 = 0) worked out at 1.39267 ± 0.00078; in data set [3] (x2 = 0.052) it was 1.39087 ± 0.00078; in data set [3] (x2 = 0.1002), 1.38995 ± 0.00078; in data set [3] (x2 = 0.199), 1.38855 ± 0.00078; in data set [3] (x2 = 0.2992) it was 1.38682 ± 0.00078; in data set [3] (x2 = 0.3991), 1.38458 ± 0.00078. In addition, the refractive index in data set [3] (x2 = 0.5005) is listed as 1.38228 ± 0.00078; in data set [3] (x2 = 0.6006), 1.37947 ± 0.00078; in data set [3] (x2 = 0.7002) it was 1.37613 ± 0.00078; in data set [3] (x2 = 0.8006) it was 1.37214 ± 0.00078; in data set [3] (x2 = 0.8998), 1.36728 ± 0.00078; in data set [3] (x2 = 0.9503) it was 1.36436 ± 0.00078.

As for `CCO` [ethanol], the mass density in data set [1] was 785.32 ± 1.2 kg/m3. Besides, in data set [2], the refractive index was 1.36161 ± 0.00078.

Take `CCO` [ethanol] + C=COCCC: the refractive index in data set [3] (x2 = 0) is recorded as 1.36161 ± 0.00078.

Turning to `CCO` [ethanol] + CC(C)CC(C)(C)C, the refractive index in data set [3] (x1 = 1) is recorded as 1.36161 ± 0.00078.

For the compound `CO` [methanol], in data set [1], the mass density was found to be 786.54 ± 1.2 kg/m3. Besides, the refractive index in data set [2] amounted to 1.3267 ± 0.00082.

As for `C=COCCC` [propyl vinyl ether], the mass density in data set [1] is given as 762.98 ± 1.2 kg/m3. Also, in data set [2], the refractive index came out at 1.39094 ± 0.00078.

Take `C=COCCC` [propyl vinyl ether] + CC(C)CC(C)(C)C: the refractive index in data set [3] (x1 = 0.0503) is reported as 1.39117 ± 0.00078; in data set [3] (x1 = 0.1011), 1.39096 ± 0.00078; in data set [3] (x1 = 0.2002), 1.39064 ± 0.00078; in data set [3] (x1 = 0.3002) it was 1.39044 ± 0.00078; in data set [3] (x1 = 0.3995), 1.39004 ± 0.00078; in data set [3] (x1 = 0.4998) it was 1.38988 ± 0.00078. Moreover, the refractive index came out at 1.38967 ± 0.00078 in data set [3] (x1 = 0.6003); 1.38964 ± 0.00078 in data set [3] (x1 = 0.7004); 1.38978 ± 0.00078 in data set [3] (x1 = 0.7998); 1.39013 ± 0.00078 in data set [3] (x1 = 0.9002); 1.39035 ± 0.00078 in data set [3] (x1 = 0.9503); 1.39094 ± 0.00078 in data set [3] (x1 = 1).

On to `C=COCCC` [propyl vinyl ether] + CCO, for which the refractive index stood at 1.36372 ± 0.00078 in data set [3] (x1 = 0.0499); 1.3655 ± 0.00078 in data set [3] (x1 = 0.1); 1.36949 ± 0.00078 in data set [3] (x1 = 0.2002); 1.37356 ± 0.00078 in data set [3] (x1 = 0.2996); 1.37689 ± 0.00078 in data set [3] (x1 = 0.4004); 1.38018 ± 0.00079 in data set [3] (x1 = 0.5006). Also, the refractive index stood at 1.38262 ± 0.00078 in data set [3] (x1 = 0.6005); 1.38517 ± 0.00078 in data set [3] (x1 = 0.7005); 1.38724 ± 0.00078 in data set [3] (x1 = 0.8002); 1.38925 ± 0.00078 in data set [3] (x1 = 0.8997); 1.3901 ± 0.00078 in data set [3] (x1 = 0.9492); 1.39094 ± 0.00078 in data set [3] (x1 = 1).
